The values that follow come from patent US6670365B1, “Substituted imidazo 1,2a}azines as selective inhibitors of cox-2” (Laboratorios S.A.L.V.A.T., S.A., priority 1998, dated 2003).

One experiment deals with T1, COX-1 (Homo sapiens, UniProt P23219).
T1 construct: Fresh blood was collected into sterile containers with no anticoagulants; endogenous in cells; host or cells: fresh whole blood without anticoagulants (platelet COX-1, TXB2 read-out)
The experiment is described as follows: Assay for in vitro COX-1 inhibition in fresh whole blood without anticoagulants (TXB2 by EIA). The class given is cell-based. The following applies: no anticoagulants, compound 0.1 to 100 μM, 37° C. for 1 hour, TXB2 levels in plasma by EIA. The protocol: Assay for in vitro COX-1 Inhibition
Fresh blood was collected into sterile containers with no anticoagulants. Aliquots of 500 μL were immediately transferred to eppendorf tubes, preloaded with a test compound each, at final concentrations varying from 0.1 to 100 μM. The eppendorf tubes were vortexed and incubated at 37° C. for 1 hour. At the end of incubation, plasma was obtained by centrifugation and stored at −80° C. TXB2 levels in plasma were established using EIA (Cayman Chemical).

For the next experiment, the target named is T2, COX-2 (Homo sapiens, UniProt P35354).
T2 construct: endogenous in cells; host or cells: human whole blood from volunteers, stimulated with LPS
T2 sequence (P35354 18-604): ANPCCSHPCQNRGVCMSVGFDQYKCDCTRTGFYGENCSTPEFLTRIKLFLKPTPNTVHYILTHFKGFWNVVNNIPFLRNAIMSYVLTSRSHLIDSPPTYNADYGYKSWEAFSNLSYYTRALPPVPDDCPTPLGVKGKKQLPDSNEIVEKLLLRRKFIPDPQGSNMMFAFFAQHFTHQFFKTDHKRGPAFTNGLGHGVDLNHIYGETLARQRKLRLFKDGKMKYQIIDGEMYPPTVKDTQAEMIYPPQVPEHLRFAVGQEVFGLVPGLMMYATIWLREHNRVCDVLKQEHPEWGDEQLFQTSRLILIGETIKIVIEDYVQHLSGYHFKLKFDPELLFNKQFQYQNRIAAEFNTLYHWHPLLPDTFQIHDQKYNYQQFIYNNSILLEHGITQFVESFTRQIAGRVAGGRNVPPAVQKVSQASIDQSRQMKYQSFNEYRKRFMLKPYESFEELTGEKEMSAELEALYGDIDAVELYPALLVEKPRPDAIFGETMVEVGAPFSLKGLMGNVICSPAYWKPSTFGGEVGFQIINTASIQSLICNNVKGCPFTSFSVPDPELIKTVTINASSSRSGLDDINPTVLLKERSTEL
The experiment is described as follows: Assay for in vitro COX-2 inhibition in LPS-stimulated human whole blood (PGE2 by EIA). The following applies: for IC50: human whole blood, compound 0.1 to 25 μM, 15 minutes at 37° C., LPS 100 μg/mL for 24 h, PGE2 levels in plasma by EIA; for selective COX-2 inhibitory activity (COX-2 in preference to COX-1): in vitro, statement in words referring to Table 1. It counts as cell-based. The protocol:
Assay for in vitro COX-2 Inhibition
Human whole blood from volunteers with no apparent inflammatory conditions and not having taken any NSAIDs for at least 15 days prior to blood collection was used to evaluate the COX-2 inhibitory effect of the synthesized compounds. […] At the end of the incubation, the blood was centrifuged at 10.000 rpm to obtain plasma, and the samples were stored at −80° C. PGE2 levels in plasma were established using EIA (Cayman Chemical).

Where only a bound is given, the exact number is not on record here.

T1 sequence (P23219 24-599): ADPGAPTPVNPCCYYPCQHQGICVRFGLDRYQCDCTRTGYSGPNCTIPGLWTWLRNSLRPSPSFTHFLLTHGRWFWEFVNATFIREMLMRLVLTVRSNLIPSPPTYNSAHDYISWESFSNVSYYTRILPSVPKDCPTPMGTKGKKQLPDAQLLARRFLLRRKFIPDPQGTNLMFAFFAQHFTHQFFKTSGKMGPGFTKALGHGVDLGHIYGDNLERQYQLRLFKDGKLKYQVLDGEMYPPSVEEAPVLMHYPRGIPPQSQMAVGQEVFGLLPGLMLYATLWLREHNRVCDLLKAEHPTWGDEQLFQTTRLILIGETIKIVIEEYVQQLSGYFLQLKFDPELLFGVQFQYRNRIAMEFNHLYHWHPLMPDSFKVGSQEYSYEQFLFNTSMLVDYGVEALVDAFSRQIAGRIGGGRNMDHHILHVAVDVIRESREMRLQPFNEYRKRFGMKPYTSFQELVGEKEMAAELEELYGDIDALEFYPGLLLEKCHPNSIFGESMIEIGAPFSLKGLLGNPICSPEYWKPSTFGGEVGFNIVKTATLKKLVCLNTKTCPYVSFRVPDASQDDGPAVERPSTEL

For the compound “2-(3-fluorophenyl)-3-(4-aminosulfonylphenyl)imidazo[1,2a][1,2,4]triazine [Product Ihh]”, at COX-1, the IC50 (in general, the concentration needed to halve the response being measured) is 100 µM. Consider “2-(3-methylphenyl)-3-(4-aminosulfonylphenyl)imidazo[1,2a][1,2,4]triazine [Product Igg]”, for which the IC50 against COX-1 is 10 µM; against COX-2 it was 2.8 µM. For “2-(4-fluorophenyl)-3-(4-methylsulfonylphenyl)imidazo[1,2a][1,2,4]triazine [Product Ibb]” the same measures were 50 µM and 2.2 µM. On the same counts, the results for “2-phenyl-3-(4-aminosulfonylphenyl)imidazo[1,2a][1,2,4]triazine [Product Idd]” are greater than 50 µM and 3.8 µM.

Turning to “2-phenyl-3-(4-methylsulfonylphenyl)imidazo[1,2a][1,2,4]triazine [Product Iaa]”, the results for the 50% inhibitory concentration (IC50) against COX-1 and against COX-2 were 76 µM and 3.1 µM, respectively.

As for `CS(=O)(=O)c1ccc(-c2c(-c3ccccc3)nc3ncccn23)cc1` [Product Ia, 2-phenyl-3-(4-methylsulfonylphenyl)imidazo [1,2a]pyrimidine], the figures for the IC50 against COX-1 and at COX-2 were greater than 50 µM and 5.5 µM, respectively. In the case of `Cc1ccc(-c2nc3ncccn3c2-c2ccc(S(C)(=O)=O)cc2)cc1` [Product Ib, 2-(4-methylphenyl)-3-(4-methylsulfonylphenyl)imidazo[1,2a]pyrimidine], on COX-1, the IC50 was greater than 50 µM. Turning to `CS(=O)(=O)c1ccc(-c2c(-c3ccc(F)cc3)nc3ncccn23)cc1` [Product Ic, 2-(4-fluorophenyl)-3-(4-methylsulfonylphenyl)imidazo[1,2a]pyrimidine], at COX-1, the IC50 is greater than 50 µM. In addition, at COX-2, it took 2.9 µM to reach half-maximal inhibition (IC50) and the “selective COX-2 inhibitory activity (COX-2 in preference to COX-1)” value (“selective COX-2 inhibitory activity” for short) was “specially selective COX-2 inhibitory activity”. On to `COc1ccc(-c2nc3ccccn3c2-c2ccc(S(C)(=O)=O)cc2)cc1` [Product Iccc, 2-(4-methoxyphenyl)-3-(4-methylsulfonylphenyl)imidazo[1,2a]pyridine], for which the half-maximal inhibitory concentration (IC50) on COX-1 is 40 µM; on COX-2, 3.3 µM. Regarding `CS(=O)(=O)c1ccc(-c2c(-c3ccc(Cl)cc3)nc3ncccn23)cc1` [Product Id, 2-(4-chlorophenyl)-3-(4-methylsulfonylphenyl)imidazo[1,2a]pyrimidine], the IC50 at COX-1 is greater than 50 µM; against COX-2, greater than 10 µM.

Take `CCOc1ccc(-c2nc3ccccn3c2-c2ccc(S(C)(=O)=O)cc2)cc1` [Product Iddd, 2-(4-ethoxyphenyl)-3-(4-methylsulfonylphenyl)imidazo[1,2a]pyridine]: the IC50 was determined as 80 µM against COX-1 and 3.5 µM against COX-2. Consider `COc1ccc(-c2nc3ncccn3c2-c2ccc(S(C)(=O)=O)cc2)cc1` [Product If, 2-(4-methoxyphenyl)-3-(4-methylsulfonylphenyl)imidazo[1,2a]pyrimidine], for which the half-maximal inhibitory concentration (IC50) on COX-1 turned out to be 25 µM. Also, at COX-2, the IC50 was 1.4 µM and the “selective COX-2 inhibitory activity” value is listed as “specially selective COX-2 inhibitory activity”. Take `COc1ccc(-c2nc3ccccn3c2-c2ccc(S(C)(=O)=O)cc2)cc1C` [Product Ifff, 2-(3-methyl-4-methoxyphenyl)-3-(4-methylsulfonylphenyl)imidazo[1,2a]pyridine]: the values for the IC50 against COX-1 and against COX-2 were 45 µM and 1 µM, respectively.

With `CCOc1ccc(-c2nc3ncccn3c2-c2ccc(S(C)(=O)=O)cc2)cc1` [Product Ig, 2-(4-ethoxyphenyl)-3-(4-methylsulfonylphenyl)imidazo[1,2a]pyrimidine], on COX-2, the IC50 came out at 1 µM and the “selective COX-2 inhibitory activity” value is “specially selective COX-2 inhibitory activity”. For the compound `Cc1ccc(-c2nc3ncccn3c2-c2ccc(S(C)(=O)=O)cc2)cc1C` [Product Ih, 2-(3,4-dimethylphenyl)-3-(4-methylsulfonylphenyl)imidazo[1,2a]pyrimidine], the figures for the IC50 against COX-1 and on COX-2 were greater than 50 µM and 2.8 µM, respectively.

As to `COc1ccc(-c2nc3ccccn3c2-c2ccc(S(C)(=O)=O)cc2)cc1Cl` [Product Ihhh, 2-(3-chloro-4-methoxyphenyl)-3-(4-methylsulfonylphenyl)imidazo[1,2a]pyridine], the figures for the IC50 against COX-1 and at COX-2 were 82 µM and 6.8 µM, respectively.

Take `COc1ccc(-c2nc3ncccn3c2-c2ccc(S(C)(=O)=O)cc2)cc1C` [Product Ii, 2-(3-methyl-4-methoxyphenyl)-3-(4-methylsulfonylphenyl)imidazo[1,2a]pyrimidine]: the IC50 is 30 µM on COX-1 and 2.2 µM at COX-2.

Consider `COc1ccc(-c2nc3ncccn3c2-c2ccc(S(C)(=O)=O)cc2)cc1Cl` [Product Ik, 2-(3-chloro-4-methoxyphenyl)-3-(4-methylsulfonylphenyl)imidazo[1,2a]pyrimidine], for which the IC50 against COX-1 came out at 61 µM; on COX-2, 3.9 µM. `Cc1ccn2c(-c3ccc(S(C)(=O)=O)cc3)c(-c3ccc(C)c(C)c3)nc2n1` [Product In, 7-methyl-2-(3,4-dimethylphenyl)-3-(4-methylsulfonylphenyl)imidazo[1,2a]pyrimidine]: the values for the IC50 against COX-1 and at COX-2 were 2 µM and 4.2 µM, respectively. For `Cc1ccccc1-c1nc2ccccn2c1-c1ccc(S(N)(=O)=O)cc1` [Product Innn, 2-(2-methylphenyl)-3-(4-aminosulfonylphenyl)imidazo[1,2a]pyridine] the same measures were greater than 100 µM and greater than 5 µM. For `Cc1ccc(-c2nc3ncccn3c2-c2ccc(S(N)(=O)=O)cc2)cc1` [Product Io, 2-(4-methylphenyl)-3-(4-aminosulfonylphenyl)imidazo[1,2a]pyrimidine] the same measures were greater than 50 µM and 4.5 µM.

Take `Cc1cccc(-c2nc3ccccn3c2-c2ccc(S(N)(=O)=O)cc2)c1` [Product Ippp, 2-(3-methylphenyl)-3-(4-aminosulfonylphenyl)imidazo[1,2a]pyridine]: the IC50 against COX-2 came to 3.1 µM.

In the case of `NS(=O)(=O)c1ccc(-c2c(-c3cccc(F)c3)nc3ccccn23)cc1` [Product Iqqq, 2-(3-fluorophenyl)-3-(4-aminosulfonylphenyl)imidazo[1,2a]pyridine], the IC50 on COX-1 was greater than 100 µM; against COX-2, greater than 10 µM. On the same counts, the results for `COc1ccc(-c2nc3ccccn3c2-c2ccc(S(N)(=O)=O)cc2)cc1C` [Product Iuuu, 2-(3-methyl-4-methoxyphenyl)-3-(4-aminosulfonylphenyl)imidazo[1,2a]pyridine] are 25 µM and 1.7 µM.
